Measured values: ChEMBL document CHEMBL4742395, “Substituted Pyrazole Derivatives As Selective CDK12/13 Inhibitors” (2019)

Key:
[1] = biological target: T1, Cyclin-dependent kinase 12 (Homo sapiens, UniProt Q9NYV4); test: Inhibition of CDK12 (unknown origin) using ULight - 4E - BP1( Thr37 / Thr46 ) as substrate preincubated for 60 mins bu LANCE-TR-FRET assay
Target sequence in this assay (Q9NYV4 whole entry): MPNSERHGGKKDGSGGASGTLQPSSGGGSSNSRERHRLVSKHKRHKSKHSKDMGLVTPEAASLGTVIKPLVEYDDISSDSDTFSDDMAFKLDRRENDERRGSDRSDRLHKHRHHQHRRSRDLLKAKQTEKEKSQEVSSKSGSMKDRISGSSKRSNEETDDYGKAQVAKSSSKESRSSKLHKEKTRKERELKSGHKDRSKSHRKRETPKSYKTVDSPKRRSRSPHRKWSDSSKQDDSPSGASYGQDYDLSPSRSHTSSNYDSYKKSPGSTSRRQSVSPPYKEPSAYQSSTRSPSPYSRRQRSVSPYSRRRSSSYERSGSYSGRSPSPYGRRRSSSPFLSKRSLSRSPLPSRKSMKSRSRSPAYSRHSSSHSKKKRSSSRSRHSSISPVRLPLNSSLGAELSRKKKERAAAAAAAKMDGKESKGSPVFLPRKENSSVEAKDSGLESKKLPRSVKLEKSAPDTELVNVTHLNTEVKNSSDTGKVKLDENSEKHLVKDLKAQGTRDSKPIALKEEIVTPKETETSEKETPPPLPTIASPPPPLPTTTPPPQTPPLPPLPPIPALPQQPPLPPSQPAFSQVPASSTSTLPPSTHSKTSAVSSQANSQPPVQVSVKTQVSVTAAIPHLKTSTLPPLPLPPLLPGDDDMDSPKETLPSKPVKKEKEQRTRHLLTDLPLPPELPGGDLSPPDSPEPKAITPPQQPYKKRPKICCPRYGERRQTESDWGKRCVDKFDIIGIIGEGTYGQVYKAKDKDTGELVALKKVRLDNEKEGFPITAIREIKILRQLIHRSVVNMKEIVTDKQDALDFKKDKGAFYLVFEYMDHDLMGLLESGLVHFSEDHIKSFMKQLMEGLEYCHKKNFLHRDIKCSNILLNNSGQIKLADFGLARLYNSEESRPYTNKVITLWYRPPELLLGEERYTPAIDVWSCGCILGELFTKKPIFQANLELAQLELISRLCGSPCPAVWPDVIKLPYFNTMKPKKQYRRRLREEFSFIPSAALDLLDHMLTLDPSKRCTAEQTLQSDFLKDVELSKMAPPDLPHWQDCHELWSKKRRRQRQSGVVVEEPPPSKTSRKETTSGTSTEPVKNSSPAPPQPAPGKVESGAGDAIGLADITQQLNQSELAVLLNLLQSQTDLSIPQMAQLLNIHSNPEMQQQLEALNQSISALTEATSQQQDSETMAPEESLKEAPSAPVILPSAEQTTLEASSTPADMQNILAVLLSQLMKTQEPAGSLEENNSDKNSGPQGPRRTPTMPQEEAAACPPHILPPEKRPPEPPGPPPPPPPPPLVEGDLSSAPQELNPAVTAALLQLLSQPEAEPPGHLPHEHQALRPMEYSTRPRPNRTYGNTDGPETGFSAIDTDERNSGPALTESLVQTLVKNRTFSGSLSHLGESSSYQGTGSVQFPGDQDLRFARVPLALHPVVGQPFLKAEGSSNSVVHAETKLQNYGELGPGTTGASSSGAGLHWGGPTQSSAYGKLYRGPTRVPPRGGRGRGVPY

[2] = biological target: T1, Cyclin-dependent kinase 12; test: Binding affinity to CDK12 in human Jurkat cells assessed as target occupancy after 6 hrs by spectrophotometry; assay type: cell-based
Target sequence in this assay (Q9NYV4 whole entry, looked up): as the sequence (Q9NYV4 whole entry) above

[3] = species on record: Homo sapiens; test: Selectivity index, ratio of IC50 for inhibition of CDK7 (unknown origin) to IC50 for inhibition of CDK12 (unknown origin)
[4] = species on record: Homo sapiens; test: Selectivity index, ratio of IC50 for inhibition of CDK7 (unknown origin) to IC50 for binding affinity to CDK13 (unknown origin)
[5] = biological target: Cyclin-dependent kinase 13 (Homo sapiens, UniProt Q14004); test: Binding affinity to CDK13 (unknown origin) by TR-FRET assay
Sequence of Cyclin-dependent kinase 13 (Q14004 whole entry): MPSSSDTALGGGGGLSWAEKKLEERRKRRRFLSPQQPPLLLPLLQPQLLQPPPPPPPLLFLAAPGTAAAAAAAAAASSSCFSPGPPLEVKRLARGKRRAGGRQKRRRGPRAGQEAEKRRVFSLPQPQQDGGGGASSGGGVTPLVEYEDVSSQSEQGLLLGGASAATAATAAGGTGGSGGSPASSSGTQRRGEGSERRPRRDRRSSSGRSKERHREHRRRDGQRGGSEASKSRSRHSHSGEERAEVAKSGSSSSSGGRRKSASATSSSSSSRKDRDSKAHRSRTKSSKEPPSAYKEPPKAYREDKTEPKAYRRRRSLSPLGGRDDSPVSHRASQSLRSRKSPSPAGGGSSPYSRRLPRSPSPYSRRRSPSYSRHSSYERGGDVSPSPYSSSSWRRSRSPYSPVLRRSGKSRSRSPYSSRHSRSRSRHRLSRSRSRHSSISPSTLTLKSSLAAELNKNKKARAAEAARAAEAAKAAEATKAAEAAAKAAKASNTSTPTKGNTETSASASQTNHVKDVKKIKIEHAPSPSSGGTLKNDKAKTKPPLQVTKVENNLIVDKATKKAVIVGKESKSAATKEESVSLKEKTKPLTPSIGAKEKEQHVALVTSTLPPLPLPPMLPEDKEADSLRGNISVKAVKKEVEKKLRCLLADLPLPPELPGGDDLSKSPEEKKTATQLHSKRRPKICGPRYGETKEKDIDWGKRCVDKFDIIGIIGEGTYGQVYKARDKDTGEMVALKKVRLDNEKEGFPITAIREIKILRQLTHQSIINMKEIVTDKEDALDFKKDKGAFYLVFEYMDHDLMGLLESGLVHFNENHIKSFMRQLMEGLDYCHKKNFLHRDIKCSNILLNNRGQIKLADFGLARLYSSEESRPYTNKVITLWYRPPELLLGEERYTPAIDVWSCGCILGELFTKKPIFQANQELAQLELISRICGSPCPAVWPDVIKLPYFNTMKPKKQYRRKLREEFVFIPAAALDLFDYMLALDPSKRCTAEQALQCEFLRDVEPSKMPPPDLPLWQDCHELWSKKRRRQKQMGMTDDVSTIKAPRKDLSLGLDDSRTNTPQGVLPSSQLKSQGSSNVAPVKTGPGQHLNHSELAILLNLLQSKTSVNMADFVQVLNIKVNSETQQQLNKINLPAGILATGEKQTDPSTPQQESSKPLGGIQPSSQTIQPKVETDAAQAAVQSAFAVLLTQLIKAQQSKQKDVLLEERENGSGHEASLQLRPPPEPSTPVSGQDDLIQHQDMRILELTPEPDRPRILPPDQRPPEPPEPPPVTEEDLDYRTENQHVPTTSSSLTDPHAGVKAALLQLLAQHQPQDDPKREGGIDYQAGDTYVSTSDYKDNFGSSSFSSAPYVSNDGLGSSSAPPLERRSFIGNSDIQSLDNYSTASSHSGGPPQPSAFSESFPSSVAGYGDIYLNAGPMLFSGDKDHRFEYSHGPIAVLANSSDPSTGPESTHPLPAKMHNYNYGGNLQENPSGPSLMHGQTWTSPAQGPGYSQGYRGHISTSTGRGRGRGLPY

[6] = biological target: Cyclin-dependent kinase 7 (Homo sapiens) (UniProt P50613); test: Binding affinity to CDK7 in human Jurkat cells assessed as target occupancy after 6 hrs by spectrophotometry; assay type: cell-based
Sequence of Cyclin-dependent kinase 7 (Homo sapiens) (P50613 whole entry): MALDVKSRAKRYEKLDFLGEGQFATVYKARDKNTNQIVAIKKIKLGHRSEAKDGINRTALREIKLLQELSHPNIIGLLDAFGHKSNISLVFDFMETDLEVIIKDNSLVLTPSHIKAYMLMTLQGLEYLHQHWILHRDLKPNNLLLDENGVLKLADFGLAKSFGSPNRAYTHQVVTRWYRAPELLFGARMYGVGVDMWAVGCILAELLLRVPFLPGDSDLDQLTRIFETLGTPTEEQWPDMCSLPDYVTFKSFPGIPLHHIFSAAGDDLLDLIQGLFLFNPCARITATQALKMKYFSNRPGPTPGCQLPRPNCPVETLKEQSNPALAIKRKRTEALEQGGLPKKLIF

[7] = species on record: Homo sapiens; test: Selectivity index, ratio of target occupancy for CDK7 in human Jurkat cells to target occupancy for CDK12 in human Jurkat cells; assay type: cell-based

Row | Structure (SMILES) | IC50 [1] [nM] | Occ50 [2] [µM] | Ratio IC50 [3] | Ratio IC50 [4] | IC50 [5] [nM] | Occ50 [6] [nM] | Ratio [7]
1 | C=CC(=O)N1CCC=C(c2ccc(CC(=O)Nc3cc(C4CC4)[nH]n3)cn2)C1 | 23 | 0.016 | 75.2 | 432 | 4 |  | 
2 | C=CC(=O)N1CCC(c2ccc(C(C)C(=O)Nc3cc(C4CC4)[nH]n3)cn2)C1 (stereo not given) | 55 |  |  |  | 6 |  | 
3 | C[C@H](C(=O)Nc1cc(C2CC2)[nH]n1)c1ccc(C2=CCN(C(=O)/C=C/CN(C)C)CC2)cc1 |  |  |  |  |  | 1670 | 
4 | CC(C(=O)Nc1cc(C2CC2)[nH]n1)c1cccc(C2CCN(C(=O)/C=C/CN(C)C)CC2)c1 (stereo not given) |  | 0.305 |  |  |  | 130 | 0.425
5 | CCN(CC)C/C=C/C(=O)N1CC=C(c2ccc([C@H](C)C(=O)Nc3cc(C4CC4)[nH]n3)cc2)CC1 | 895 |  |  |  | 72 |  | 
6 | CC#CC(=O)N1CCC=C(c2ccc(CC(=O)Nc3cc(C4CC4)[nH]n3)cn2)C1 | 37 |  |  |  | 5 |  | 
7 | C=CC(=O)N1CC=C(c2ccc(CC(=O)Nc3cc(C4CC4)[nH]n3)cn2)CC1 | 40 | 0.025 |  |  | 19 |  | 
8 | C=CC(=O)N1CCC=C(c2ccc(C(C(=O)Nc3cc(C4CC4)[nH]n3)C(C)C)cc2)C1 (stereo not given) | 160 |  |  |  | 279 |  | 
